Patent publication US11510932B2, “Prophylactic and therapeutic treatment of alzheimer's disease using phytic acid and phytate to reduce amyloid beta plaque and tau protein” (priority 2009, dated 2022)

Experiments:
MC65 cells [1] = test: APP CTF-induced neurotoxicity (cell viability) in MC65 cells; conditions: for attenuation of APP CTF-induced neurotoxicity (active/inactive): in vitro challenge test
[2] = system: NGF-differentiated PC12 cells; conditions: 10 μM; cited from earlier work
[3] = humans, ingestion of large doses; cited from earlier work
[4] = system: Alzheimer's transgenic mice; test: Toxicity and weight loss in treated Alzheimer's transgenic mice; assay type: in vivo; conditions: 2% phytic acid in drinking water, about six months
Procedure: (§1) Applicant also submits Table 1 and FIGS. 4-6 showing data from in vivo testing of the subject matter compounds in Alzheimer's transgenic mice. These Alzheimer's transgenic mice are genetically altered to produce Abeta plaque, and were treated for about six months with compounds of the Applicant's invention. Namely, the drinking water was infused with phytic acid so that the final concentration of phytic acid in the drinking water was 2%.

Abeta plaque = Abeta plaque in brains of Alzheimer's transgenic mice versus control vehicle; assay type: in vivo; conditions: 2% phytic acid, all three cases (FIGS. 4-6)
Procedure: as §1
After six months, the animals were put down for autopsy and necropsy so that Abeta plaque in the brains was assayed, separated and weighed.
FIGS. 4-6 are graphs comparing the tested compound in vivo with the control vehicle.

MC65 cells [5] = test: Oxidative stress associated with APP CTF expression, hydrogen peroxide in cell media; assay type: cell-based, human; conditions: 100 μM
Procedure: In vitro studies were conducted in MC65 cells, an established human neuroblastoma line that conditionally expresses the first 17 amino-terminal residues and the 99 carboxy-terminal residues of amyloid precursor protein (APP CTF). Detectable APP CTF expression occurs within 3-4 h of tetracycline withdrawal, appearance of aggregates and initial losses of culture viability occurs at about 2 days and near complete death occurs by approximately 3 days.

[6] = system: transgenic mouse model of Alzheimer's Disease; conditions: cited from earlier work
amyloid-B peptide (AB) = conditions: transgenic Alzheimer Disease mouse studies; cited from earlier work

O[C@H]1[C@H](O)[C@@H](O)[C@H](O)[C@@H](O)[C@H]1O [myo inositol, reference compound]
attenuation of APP CTF-induced neurotoxicity (active/inactive) (MC65 cells [1]): inactive | rescue from Ab-induced neurotoxicity [2]: rescues

O=P(O)(O)O[C@H]1[C@H](OP(=O)(O)O)[C@@H](OP(=O)(O)O)[C@H](OP(=O)(O)O)[C@@H](OP(=O)(O)O)[C@H]1OP(=O)(O)O [phytic acid, myo-inositol-hexakis (dihydrogen phosphate)]
EC50 (MC65 cells [1]; Homo sapiens, MC65, read-out: EC50 concentration, protection from APP CTF-induced death): ~100 µM | protection from cytotoxicity (MC65 cells [1]; MC65 cells, concentrations of 200 μM and higher): near complete protection | attenuation of APP CTF-induced neurotoxicity (active/inactive) (MC65 cells [1]): active | physiological discomfort or symptoms of toxicological action [3]: elicits no physiological discomfort or symptoms of any toxicological action | toxicity in the treated group [4]: no toxicity | weight loss in the treated group [4]: nor any significant weight loss | Abeta plaque compared to the control vehicle (Abeta plaque): reduction in Abeta plaque | oxidative stress associated with APP CTF expression (hydrogen peroxide in the cell media) (MC65 cells [5]): suppressed oxidative stress

O[C@H]1[C@H](O)[C@@H](O)[C@H](O)[C@@H](O)[C@@H]1O [scyllo inositol]
attenuation of APP CTF-induced neurotoxicity (active/inactive) (MC65 cells [1]): inactive | prevention and reversal of Alzheimer's Disease [6]: prevent and reverse Alzheimer's Disease | rescue from Ab-induced neurotoxicity [2]: rescues | aggregation of amyloid-B peptide (AB) (amyloid-B peptide (AB)): inhibits and blocks the aggregation
